According to PubChem BioAssay AID463199 (Broad Institute, 2010):
Active and inactive are the calls of the source.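 How the source made its calls: active means AC50, the dose giving half-maximal effect, exceeds a fixed cutoff for a compound that rescues yeast growth under heat; inactive means the rest, inconclusive results apart.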 Where a SMILES comes first, the peptide text is derived from it.

System: S. cerevisiae Burl-1 ts mutant growth, BacTiter-Glo, 38.5C 24 h
Test: growth induction of Burl-1 ts yeast mutant, dose response, counter-screen for SUMOylation pathway inhibitor project, whole organism, S. cerevisiae, luminescence (AID 463199)

With COc1nc(-c2ccccc2)ccc1-c1noc(-c2ccccc2)n1 as the compound, how does the AC50 read?
Its AC50 is > 42 µM (inactive).

With O=C(CP(=O)(c1ccccc1)c1ccccc1)N1CCOCC1 as the compound, how does the AC50 read?
The AC50 was > 42 µM (inactive).

How did the AC50 turn out when COC(=O)CNC(=O)CSc1ccccn1 was run?
Its AC50 is > 42 µM (inactive).

Which AC50 does the source give for CCOC(C(=O)OCCCN(CC)CC)(c1ccccc1)c1ccccc1 here?
The AC50 was > 42 µM (inactive).

Which AC50 does the source give for Cc1cccc(N2CCN(C(=O)CN3C(=O)NC(C)(C)C3=O)CC2)c1C here?
Its AC50 is > 42 µM (inactive).

For O=C(CSc1nnnn1C1CC2CCC1C2)Nc1ccnc2ccccc12 (stereo unspecified), which AC50 is on record?
The AC50 was > 42 µM (inactive).

For CCOc1ccc(N(CC)S(=O)(=O)c2cccc3nsnc23)cc1, which AC50 is on record?
Its AC50 is > 42 µM (inactive).

How did the AC50 turn out when CN(C)C1(c2nnnn2-c2ccc(Cl)cc2)CCCCC1 was run?
Its AC50 is > 42 µM (inactive).

With CCc1cc2c(NCCO)ncnc2s1 as the compound, how does the AC50 read?
The AC50 was > 42 µM (inactive).

How did the AC50 turn out when O=C(/C=C/c1cccc([N+](=O)[O-])c1)NCCSCc1ccc(Cl)cc1Cl was run?
Its AC50 is > 42 µM (inactive).

For O=C1NC(=O)N(Cc2ccccc2)C1=O, which AC50 is on record?
Its AC50 is > 42 µM (inactive).

Which AC50 does the source give for O=Nc1c(-c2cccc([N+](=O)[O-])c2)nc2ncccn12 here?
Its AC50 is > 42 µM (inactive).

For S=c1[nH]nc(-c2ccccn2)n1/N=C/c1ccccc1, which AC50 is on record?
The AC50 was > 42 µM (inactive).

Which AC50 does the source give for CC(=O)c1ccc(Oc2cc(C)nc(N3CCOCC3)n2)cc1 here?
The AC50 was > 42 µM (inactive).

Which AC50 does the source give for CC1(C)C2CC[C@]3(C)C(CC=C4[C@@H]5C[C@@](C)(CO)[C@@H](O)C[C@]56C[C@@H](OC6=O)[C@]43C)[C@@]2(C)CC[C@@H]1O (stereo partly specified) here?
The AC50 was > 42 µM (inactive).

Which AC50 does the source give for CCCCNC(=O)C1C2C=CC3(CN(Cc4ccc(C)cc4)C(=O)C13)O2 (stereo unspecified) here?
The AC50 was > 42 µM (inactive).

Which AC50 does the source give for CCOC(=O)c1ccc(CNC(=O)Cn2nnc(-c3ccc(C)cc3)n2)o1 here?
The AC50 was > 42 µM (inactive).

COCC(=O)NNC(=O)c1ccccc1OC was tested. Which AC50 did it give?
The AC50 was > 42 µM (inactive).

CCOC(=O)C1CCN(C(=O)c2sccc2Cl)CC1 was tested. Which AC50 did it give?
The AC50 was > 42 µM (inactive).

How did the AC50 turn out when NC(=O)c1nsc(C(=O)N(Cc2ccc(F)cc2)C(C(=O)NC2CCCC2)c2ccco2)c1N (stereo unspecified) was run?
The AC50 was > 42 µM (inactive).

Which AC50 does the source give for Nc1nc(-c2ccc(Cl)cc2)nc(-c2ccc(Cl)cc2)n1 here?
Its AC50 is > 42 µM (inactive).

Which AC50 does the source give for COc1ccc(OC)c(NC(=O)CN(C)S(=O)(=O)c2ccc(Cl)cc2)c1 here?
The AC50 was > 42 µM (inactive).

CC(=O)c1ccc(N=C2SCCCN2C(=O)C2CCCC2)cc1 was tested. Which AC50 did it give?
Its AC50 is > 42 µM (inactive).

O=C(Nc1ccc2ccccc2c1)N1CCCN(CCOc2ccccc2)CC1 was tested. Which AC50 did it give?
Its AC50 is > 42 µM (inactive).

For CSc1ccccc1-c1nc(-c2ccncc2)no1, which AC50 is on record?
The AC50 was > 42 µM (inactive).

CS(=O)(=O)N(CC(=O)N1CCCC1)c1cccc(Cl)c1Cl was tested. Which AC50 did it give?
Its AC50 is > 42 µM (inactive).

How did the AC50 turn out when COc1cccc(-n2c(Cc3cc(=O)[nH]c(=O)[nH]3)nnc2SCc2cccnc2)c1 was run?
Its AC50 is > 42 µM (inactive).

Which AC50 does the source give for Clc1ccc(N=c2ssnc2Cl)nc1 here?
Its AC50 is > 42 µM (inactive).

COc1ccccc1CNc1ncnc2c1nnn2Cc1ccccc1 was tested. Which AC50 did it give?
Its AC50 is > 42 µM (inactive).

How did the AC50 turn out when CCc1c(C(=O)N2CCN(c3ccccc3F)CC2)[nH]c(C)c1C(C)=O was run?
The AC50 was > 42 µM (inactive).

With COc1ccc(C(C)=O)cc1CN(c1ccccc1OC)S(=O)(=O)c1cccs1 as the compound, how does the AC50 read?
The AC50 was > 42 µM (inactive).

For COc1ccc(N(C(=O)c2ccncc2)S(=O)(=O)c2ccc(F)cc2)cc1, which AC50 is on record?
The AC50 was > 42 µM (inactive).

Which AC50 does the source give for O=[N+]([O-])c1c(NCCCO)cc(Sc2nc3ccccc3s2)c2nonc12 here?
Its AC50 is > 42 µM (inactive).

With Cc1c(NC(C)c2cc(Cl)ccc2O)c(=O)n(-c2ccccc2)n1C (stereo unspecified) as the compound, how does the AC50 read?
The AC50 was > 42 µM (inactive).

Which AC50 does the source give for Fc1ccc(-c2nnc3ccc(N4CCCC4)nn23)cc1 here?
Its AC50 is > 42 µM (inactive).

With Cc1ccc(SCC(=O)O/N=C(\N)c2cccc([N+](=O)[O-])c2)cc1 as the compound, how does the AC50 read?
The AC50 was > 42 µM (inactive).

Which AC50 does the source give for O=C(CCN1CCc2ccccc2C1)Nc1ccc2c(c1)OCO2 here?
Its AC50 is > 42 µM (inactive).

With O=C(Nc1ccc([N+](=O)[O-])cn1)c1ccc2c(c1)OCO2 as the compound, how does the AC50 read?
The AC50 was > 42 µM (inactive).

Which AC50 does the source give for O=C(c1ccc(-c2ccccc2)cc1)C1CCCN(Cc2ccncc2)C1 (stereo unspecified) here?
Its AC50 is > 42 µM (inactive).

For Cn1c(=O)c2c(ncn2CC(=O)N2CCCCCC2)n(C)c1=O, which AC50 is on record?
The AC50 was > 42 µM (inactive).

CCOc1ccc(-c2c(C(=O)N/N=C/c3ccncc3)nnn2-c2nonc2N)cc1 was tested. Which AC50 did it give?
The AC50 was > 42 µM (inactive).

Which AC50 does the source give for Cc1ccc(Oc2ccc(OCC(=O)Nc3ccncc3)cc2)cc1 here?
The AC50 was > 42 µM (inactive).

N#C/C(=C\Nc1ccc2c(c1)OCCO2)c1nc2ccccc2[nH]1 was tested. Which AC50 did it give?
Its AC50 is > 42 µM (inactive).

For COC(=O)C1CCN(S(=O)(=O)Cc2ccccc2)CC1, which AC50 is on record?
The AC50 was > 42 µM (inactive).

How did the AC50 turn out when CCN(CC)c1nc(Nc2ccc(Cl)cc2)nc(OCC#N)n1 was run?
The AC50 was > 42 µM (inactive).

With C=CCNC(=O)NC(=O)COC(=O)CCCSc1nc2ccccc2[nH]1 as the compound, how does the AC50 read?
The AC50 was > 42 µM (inactive).

How did the AC50 turn out when CC(=O)NC(CC(C)C)C(=O)NC(CO)C(=O)NC(CCC(=O)O)C(=O)NC(C)C(=O)NC(CC(C)C)C(N)=O (stereo unspecified) (Ac-LSEAL-NH2; configuration not given here) was run?
The AC50 was > 42 µM (inactive).

CS(=O)(=O)N1CCCC(C(=O)NCc2ccco2)C1 (stereo unspecified) was tested. Which AC50 did it give?
The AC50 was > 42 µM (inactive).

O=C(CSc1nc(O)cc(=O)n1-c1ccccc1)NC1CCCCC1 was tested. Which AC50 did it give?
The AC50 was > 42 µM (inactive).

With CSc1ccccc1NC(=O)COc1nsnc1N1CCOCC1 as the compound, how does the AC50 read?
Its AC50 is > 42 µM (inactive).

Cc1cc(-c2nnc3sc(C4CCCCC4)nn23)n[nH]1 was tested. Which AC50 did it give?
Its AC50 is > 42 µM (inactive).

With CCN(CCn1cccn1)C(=O)C1CCC(=O)N(CCc2cccc(F)c2)C1 (stereo unspecified) as the compound, how does the AC50 read?
The AC50 was > 42 µM (inactive).

With COc1cc(C(=O)Nc2ccc3c(c2)OCCO3)ccc1-n1cnnn1 as the compound, how does the AC50 read?
The AC50 was > 42 µM (inactive).

Which AC50 does the source give for COCCCn1c2nc3ccccc3nc2c2c(=O)n(Cc3ccc(Cl)cc3)cnc21 here?
The AC50 was > 42 µM (inactive).

Which AC50 does the source give for O=C(NCCCn1ccnc1)c1ccc(Cl)cc1 here?
Its AC50 is > 42 µM (inactive).

How did the AC50 turn out when CC(C)C1=CC(=Nc2ccc(S(N)(=O)=O)cc2)C=C(C(C)C)C1=O was run?
The AC50 was > 42 µM (inactive).

For O=C(NCc1ccccc1Cl)C(=O)NCC1CCCN1S(=O)(=O)c1cccs1 (stereo unspecified), which AC50 is on record?
The AC50 was > 42 µM (inactive).

Which AC50 does the source give for COC(=O)c1ccc(NC(=O)CCN2CCN(c3ccccc3)CC2)cc1 here?
Its AC50 is > 42 µM (inactive).

How did the AC50 turn out when O=C(Nc1ccc(F)cc1)c1cccnn1 was run?
The AC50 was > 42 µM (inactive).

Which AC50 does the source give for CCNc1ccc(S(=O)(=O)N(C)C)cc1NCC(=O)Nc1ccccc1Br here?
The AC50 was > 42 µM (inactive).

CCOC(=O)C(NC(=O)c1ccccc1)(N1CCOCC1)C(F)(F)F (stereo unspecified) was tested. Which AC50 did it give?
Its AC50 is > 42 µM (inactive).

CCN(CC)CCCN1C(=O)C(=O)/C(=C(/O)c2ccccc2)C1c1cc(OC)ccc1OC (stereo unspecified) was tested. Which AC50 did it give?
The AC50 was > 42 µM (inactive).

CCNC(=O)COc1ccc(S(=O)(=O)Nc2ccccc2)cc1 was tested. Which AC50 did it give?
The AC50 was > 21 µM (inactive).

With CC1Cc2ccccc2N1C(=O)Cn1c(=O)cc(O)c2ccccc21 (stereo unspecified) as the compound, how does the AC50 read?
Its AC50 is > 42 µM (inactive).

Which AC50 does the source give for COc1ccc(/C=C(\C#N)C(=O)c2cccn2C)cc1 here?
The AC50 was > 42 µM (inactive).

Which AC50 does the source give for CCNC(=O)NC1c2ccccc2CSc2ccccc21 (stereo unspecified) here?
The AC50 was > 42 µM (inactive).

How did the AC50 turn out when COC(=O)C12CCC3(SCCS3)C(C(=O)OC)(CCC13SCCS3)C2 was run?
Its AC50 is > 42 µM (inactive).

C/C(=C\C(=O)N1CCc2ccccc21)C(=O)O was tested. Which AC50 did it give?
The AC50 was > 42 µM (inactive).

How did the AC50 turn out when Cc1ccc(C)c(C(C)NC(=O)c2ccncc2)c1 (stereo unspecified) was run?
Its AC50 is > 42 µM (inactive).

How did the AC50 turn out when CC/C(=N\NC(=O)c1nnn(-c2nonc2N)c1-c1cccs1)c1ccccc1 was run?
Its AC50 is > 42 µM (inactive).

COc1ccc2nc(SCC(=O)N(C)CC(=O)Nc3ccc(F)cc3)[nH]c2c1 was tested. Which AC50 did it give?
The AC50 was > 42 µM (inactive).
